Consider 13 molecules from patent publication US10196373B2, “Substituted 2-hydroxy-4-(2-(phenylsulfonamido)acetamido)benzoic acid analogs as inhibitors of STAT protein” (University of Central Florida Research Foundation, Inc., priority 2010, dated 2019).

The IC50 is the point on the concentration scale where inhibition reaches its midpoint. A low value points to inhibition by little substance.

Common to all, as to assay: Cell viability, MTS assay
Holding throughout (format): cell-based
For orientation: Tetrazolium assays rely on reduction of a dye to a coloured formazan, in cell work by metabolically active cells.

Assay [1] deals with OCI-AMI.2 cells.
In assay [2] the test system is HL60 cells. Conditions: Homo sapiens, HL-60, HL60, 72 hours. The protocol: (§1) To further test activity of these molecules, a whole-cell study involving cancer lines with known abherrant STAT3 expression was conducted. These human cell lines, including prostate cancer (DU145), breast cancer (MDA468), and promyelocytic leukemia (HL-60) were treated with the peptidomimetics and incubated for 72 hours. Disruption of cell viability was measured by MTS assay and IC50 values for the potential inhibitors was determined. OriginPro 8 (Northampton, Mass.) was used to evaluate EC50 using the dose response curve defined as follows:
(§2) [formula] where y is the fraction of death, x is the log of drug concentration. A2 is the top asymptote, A1 is the bottom asymptote, logx0 is the center of the curve, and p is the hill slope.

Assay [3] relates to DU-145 cells. Conditions: Homo sapiens, DU-145, 72 hours. The protocol:
as §1, §2

For assay [4], the system named is MDA-468 cells. Conditions: Homo sapiens, MDA-468, 72 hours. The protocol:
as §1, §2

Some results are limits rather than exact numbers.

As for `Cc1ccc(S(=O)(=O)N(C)CC(=O)N(Cc2ccc(-c3ccc(C(=O)O)cc3)cc2)c2ccc(C(=O)O)c(O)c2)cc1` [Compound 27LE, 4′-((N-(4-carboxy-3-hydroxyphenyl)-2-(N,4-dimethylphenylsulfonamido)acetamido)methyl)-[1,1′-biphenyl]-4-carboxylic acid], the IC50 in assay [1] was 76.7 ± 27.1 µM; in assay [2] it was 68 ± 32.8 µM; in assay [3], over 100 µM; in assay [4], 52.9 ± 22.5 µM.

Consider `Cc1ccc(S(=O)(=O)N(C)CC(=O)N(Cc2ccc(-c3ccc(-c4cccc(C#N)c4)cc3)cc2)c2ccc(C(=O)O)c(O)c2)cc1` [Compound 27NC], for which the IC50 was over 100 µM in assay [1], 82.8 ± 19 µM in assay [2], over 100 µM in assay [3] and 90.5 ± 63.2 µM in assay [4].

`COC(=O)c1ccc(-c2ccc(-c3ccc(CN(C(=O)CN(C)S(=O)(=O)c4ccc(C)cc4)c4ccc(C(=O)O)c(O)c4)cc3)cc2)cc1` [Compound 27NE]: the IC50 in assay [1] was over 100 µM; in assay [2], over 100 µM; in assay [3], over 100 µM; in assay [4], 96.3 ± 31.7 µM.

As for `Cc1ccc(S(=O)(=O)N(C)CC(=O)N(Cc2ccc(-c3ccc(-c4ccc(C#N)cc4)cc3)cc2)c2ccc(C(=O)O)c(O)c2)cc1` [Compound 27NG, 4-(N-((4′-cyanoterphenyl-4-yl)methyl)-2-(N,4-dimethylphenylsulfonamido)acetamido)-2-hydroxybenzoic acid], the IC50 in assay [1] was 58.4 ± 13.8 µM; in assay [2], 37.4 ± 14 µM; in assay [3], 94.4 ± 6.8 µM; in assay [4], 32.5 ± 15.5 µM.

In the case of `Cc1cccc(S(=O)(=O)N(C)CC(=O)N(Cc2ccc(C3CCCCC3)cc2)c2ccc(C(=O)O)c(O)c2)c1` [Compound 45A, 4-(N-(4-cyclohexylbenzyl)-2-(N,3-dimethylphenylsulfonamido)acetamido)-2-hydroxy-benzoic acid], the IC50 in assay [1] was 85.9 ± 0.4 µM; in assay [2], 78.5 ± 1.8 µM; in assay [3] it was 90.4 ± 3.1 µM; in assay [4], 59.6 ± 4 µM.

Take `CN(C)c1cccc2c(S(=O)(=O)N(C)CC(=O)N(Cc3ccc(C4CCCCC4)cc3)c3ccc(C(=O)O)c(O)c3)cccc12` [Compound 45G, 4-(N-(4-cyclohexylbenzyl)-2-(5-(dimethylamino)-N-methylnaphthalene-1-sulfonamido)acetamido)-2-hydroxybenzoic acid]: the IC50 in assay [1] was over 100 µM; in assay [2] it was 74.9 ± 20.2 µM; in assay [3] it was over 100 µM; in assay [4] it was 45.5 ± 7.9 µM.

Turning to `CN(CC(=O)N(Cc1ccc(C2CCCCC2)cc1)c1ccc(C(=O)O)c(O)c1)S(=O)(=O)c1cn(C)cn1` [Compound 45H, 4-(N-(4-cyclohexylbenzyl)-2-(N,1-dimethyl-1H-imidazole-4-sulfonamido)acetamido)-2-hydroxybenzoic acid], the IC50 in assay [1], in assay [2], in assay [3] and in assay [4] was over 100 µM each time.

For `CN(CC(=O)N(Cc1ccc(C2CCCCC2)cc1)c1ccc(C(=O)O)c(O)c1)S(=O)(=O)c1ccc(C#N)cc1` [Compound 45I, 4-(2-(4-cyano-N-methylphenylsulfonamido)-N-(4-cyclohexylbenzyl)acetamido)-2-hydroxy-benzoic acid], the IC50 in assay [1] came out at 53.5 ± 22.8 µM; in assay [2] it was 59.1 ± 11.5 µM; in assay [3], 69.6 ± 3.4 µM; in assay [4] it was 27 ± 2.7 µM.

As for `CN(CC(=O)N(Cc1ccc(C2CCCCC2)cc1)c1ccc(C(=O)O)c(O)c1)S(=O)(=O)c1ccc(Br)cc1` [Compound 45J], the IC50 in assay [1] turned out to be 44.9 ± 7.1 µM; in assay [2], 47.4 ± 8.2 µM; in assay [3], 45.9 ± 8.6 µM; in assay [4], 19.5 ± 2 µM.

Regarding `CN(CC(=O)N(Cc1ccc(C2CCCCC2)cc1)c1ccc(C(=O)O)c(O)c1)S(=O)(=O)c1ccc(Cl)cc1` [Compound 45K, 4-(2-(4-chloro-N-methylphenylsulfonamido)-(4-cyclohexylbenzyl)acetamido)-2-hydroxy-benzoic acid], the IC50 in assay [1] came to 76.4 ± 10.8 µM; in assay [2] it was 56.3 ± 9.3 µM; in assay [3], 67.5 ± 24.2 µM; in assay [4], 29.7 ± 16.7 µM.

On to `CN(CC(=O)N(Cc1ccc(C2CCCCC2)cc1)c1ccc(C(=O)O)c(O)c1)S(=O)(=O)c1ccc(F)cc1` [Compound 45L, 4-(N-(4-cyclohexylbenzyl)-2-(4-fluoro-N-methylphenylsulfonamido)acetamido)-2-hydroxy benzoic acid], for which the IC50 in assay [1] came to 84.4 ± 22.1 µM; in assay [2], 75.1 ± 25.1 µM; in assay [3], 72.7 ± 18.4 µM; in assay [4] it was 41.3 ± 5.7 µM.

Consider `COc1ccc(S(=O)(=O)N(C)CC(=O)N(Cc2ccc(C3CCCCC3)cc2)c2ccc(C(=O)O)c(O)c2)cc1` [Compound 45M, 4-(N-(4-cyclohexylbenzyl)-2-(4-methoxy-N-methylphenylsulfonamido)acetamido)-2-hydroxybenzoic acid], for which the IC50 in assay [1] was over 100 µM; in assay [2], over 100 µM; in assay [3] it was 92.7 ± 27.9 µM; in assay [4], 71.4 ± 13.6 µM.

Turning to `CN(CC(=O)N(Cc1ccc(C2CCCCC2)cc1)c1ccc(C(=O)O)c(O)c1)S(=O)(=O)c1ccc([N+](=O)[O-])cc1` [Compound 45N, 4-(N-(4-cyclohexylbenzyl)-2-(N-methyl-4-nitrophenylsulfonamido)acetamido)-2-hydroxy benzoic acid], the IC50 is 96.3 ± 18.5 µM in assay [1], 99.3 ± 62.1 µM in assay [2], over 100 µM in assay [3] and 51.7 ± 14.2 µM in assay [4].
